Key:
Type in all cases: cell-based
Lactobacilli = assay: growth of Lactobacilli in supplemented milk (general trials); details: addition of ribonucleosides to milk
Experimental: In order to find the identity of other stimulatory substances, several trials were performed with ribonucleotide precursors, that is free bases such as adenine, guanine, cytosine, thymine, and uracil, ribonucleosides such as adenosine, cytidine, uridine, and guanosine, and 2′-deoxyribonucleosides such as deoxyadenosine, deoxyguanosine, deoxycytidine, deoxyuridine and thymidine. These compounds were supplemented to milk as concentrated alkaline or neutral solutions at different concentrations.
This finding confirmed the hypothesis that the low level of purines in milk negatively affects bacterial growth therein. […] Without being bound by theory, it is believed that the high content of orotic acid allows the synthesis of pyrimidine bases. No significant differences in pH-values were detected by the addition of free bases and deoxyribonucleosides between aerobic and anaerobic conditions. […] The positive effect was observed particularly with the addition of ribonucleosides in anaerobic environment.
(§1) The growth results were estimated by cell counts and a final pH measurement performed after 24 hours incubation at 37 ° C. Rapid Analysis of Bacterial Impedance Technique (RABIT) (Don Whitley Scientific, West Yorkshire, UK) was used to perform trials with skim and whole UHT milk for 24 hours at 37° C.

L. johnsonii ATCC 33200 = assay: omission technique with RABIT in skim milk; details: skim milk with four ribonucleosides and ferrous sulphate
Experimental: as §1
In order to determine those amino acids having an essential role for L. johnsonii growth in milk, the “omission technique” (Reiter, B. & Oram, J. D, I. Dairy Res, 29 (1962), 63-77) was applied by culturing the strain ATCC 33200^T in skim milk, adding four ribonucleosides and ferrous sulphate (positive control), supplemented with the mixture of 19 amino acids described above deprived of one particular component at each given time.

L. johnsonii = assay: growth assay in milk, L. johnsonii (strain not specified)
Experimental: Skim milk (Difco) 10% w/v in sterile water and whole fat UHT milk (Parmalat, Italy) were used to perform the growth assays. The milk tubes were 1% inoculated from an overnight MRS culture washed twice and finally re-suspended with the same amount of sterile distilled water in order to avoid nutrient transfer via the medium.
Milk tubes were incubated aerobically in a thermostat (Sorvall Heraeus) at 37° C. for 24 hours, or anaerobically in an anaerobic incubator (Model 1024, Forma Scientific, USA) at 37° C. for 24 hours.
The chemicals supplemented to the milk were added as concentrated solutions prepared according to standard methods, i.e., the Merck Index instructions. The final pH of milk was adjusted to 6.8 after supplementation using an aqueous 4N sodium hydroxide solution. The initial pH of the 10% skim milk solution and whole fat UHT milk was 6.8 and 6.7, respectively.
as §1
A final pH of 4.1 was measured after amino acids supplementation, but the cell count was still not satisfactory. The cell count when a 10% skim milk with 19 amino acids added increased from 1.0×10^7 CFU/ml to 40×10^7 CFU/ml, which is a factor of 40 increase but is less than the factor of 300 increase observed with 10% skim milk and yeast extract.

`Nc1ncnc2c1ncn2[C@@H]1O[C@H](CO)[C@@H](O)[C@H]1O` [adenosine] was tested, and the “improvement of growth conditions in milk” value (Lactobacilli) was “strongest effect”.

In the case of `C[C@H](N)C(=O)O` [alanine], the “effect of amino acid on growth (RABIT, omission technique)” value (“effect of amino acid on growth” for short) (L. johnsonii ATCC 33200) is reported as “excellent results”.

For `N[C@@H](CS)C(=O)O` [cysteine], the “pH in the presence of cysteine” value (L. johnsonii; aerobic conditions) was 3.9, the “pH in absence of cysteine” value (L. johnsonii; anaerobic conditions) was 4.3 and the “effect of amino acid on growth” value (L. johnsonii ATCC 33200) was “excellent results”.

In the case of `Nc1nc2c(ncn2[C@@H]2O[C@H](CO)[C@@H](O)[C@H]2O)c(=O)[nH]1` [guanosine], the “improvement of growth conditions in milk” value (Lactobacilli) is reported as “strongest effect”.

With `CC[C@H](C)[C@H](N)C(=O)O` [isoleucine] the “effect of amino acid on growth” value (L. johnsonii ATCC 33200) was “excellent results”.

For `N[C@@H](CO)C(=O)O` [serine], the “effect of amino acid on growth” value (L. johnsonii ATCC 33200) was “excellent results”.

With `O=C(O)CS` [thioglycollic acid] the cell counts (L. johnsonii; aerobic conditions, final concentration 0.5% v/v, replacing cysteine) was “more than 100×10^7 CFU/ml”.

Source: patent US6521443B1, “Growth medium for lactobacilli containing amino acids, nucleosides and iron” (Nestec S.A., priority 1999, dated 2003)
